Source: US20250332154A1, “USE OF NAPHTHOQUINE PHOSPHATE IN PREPARATION OF A MEDICAMENT FOR TREATING AUTOIMMUNE DISEASES” (SHANGHAI PHARMACEUTICALS INDUSTRY CO., LTD, priority 2022, published 2025)
Where a name gives a salt, the structure may show the parent alone. Read-outs that look alike come from different tables or passages of the source.

Experiments:
TNF-α = TNF-α production by LPS-induced RAW264.7 cells (ELISA); assay type: cell-based, mouse; settings: for production of TNF-α: LPS-induced RAW264.7, in words; for IC50: Mus musculus, LPS 10 μg/ml, RAW264.7
Protocol: RAW264.7 cells were inoculated into a 96-well plate at 1×10^5/well and allowed to adhere to the wall for 6 hours in a 37° C., 5% CO2 incubator. […] After the cells adhered to the wall, the stimulant LPS (final concentration: 10 μg/ml) and the gradient-diluted compounds were added. A corresponding stimulation control and a cell control (without stimulation) were set up. After the end of the culture, the cell culture supernatants were collected, and the levels of TNF-α, IL-1β and IL-6 were measured by ELISA.

purified mouse B cells = test: B cell proliferation assay, TLRs-L-stimulated purified mouse B cells (3H-TdR); assay type: cell-based; settings: for IC50: Mus musculus, B-cell, 48 h, purified B cells, stimulant TLR4-L 10 μg/ml; for proliferation of purified mouse splenic B cells and production of inflammatory cytokines and antibodies induced by specific TLR signals: in words
Protocol: (§1) BALB/c mice were sacrificed by cervical dislocation, and spleens were aseptically excised to prepare spleen lymphocytes. The cells were adjusted to 1×10^8 cells/ml, blocked with 2.4G2 (final concentration: 10 μg/ml) for 20 min, cultured with PE-CD19 (final concentration: 5 μg/ml) for 20 min, washed with MACS buffer, centrifuged at 4° C., 300G for 10 min, 100 μl anti-PE beads were added per 1×10^8 cells, incubated with 900 μl MACS buffer for 15 min, washed with MACS buffer, centrifuged at 4° C., 300G for 10 min. The supernatant was discarded. 500 μl MACS buffer was added per 1×10^8 cells to resuspend the cells. MACS column was used for separation. Magnetically labeled cells were retained on the column. The MACS column was removed from the magnetic field and then eluted.
Hydroxychloroquine sulfate was diluted 2-fold into 3 concentrations starting from 8 μM: 8, 4 and 2 μM. Naphthoquine phosphate was diluted 2-fold into 3 concentrations starting from 0.5: 0.5, 0.25 and 0.125 μM. A suspension of purified mouse B cells was inoculated into a 96-well plate at 4×10^5/well, and the stimulant TLR4-L (final concentration: 10 μg/ml), TLR7-L (final concentration: 5 μg/ml) or TLR9-L (final concentration: 1 μM) and the gradient diluted compounds were added. A corresponding stimulation control and a cell control (without stimulation) were set up. The cells were cultured in 37° C., 5% CO2 incubator for 48 hours. Eight hours before the end of the culture, ^3H-TdR was added, and the culture was continued until the end of the experiment. The cells were collected onto glass fiber membranes using a cell collector. 5 ml scintillation fluid was added, and the values of radioactive counts per minute were read on a Beta counter (2450 Microplate Counter, PerkinElmer).

[1] = tested on: mouse whole spleen lymphocytes; test: TLRs-L-stimulated proliferation of mouse whole spleen lymphocytes (3H-TdR); assay type: cell-based; settings: for IC50: Mus musculus, Lymphocyte, 48 h
Protocol: (§2) BALB/c mice were sacrificed by cervical dislocation, and spleens were aseptically excised to prepare whole spleen lymphocytes. The cells were adjusted to 5×10^6 cells/ml. Hydroxychloroquine sulfate was diluted with a 3-fold gradient into 3 concentrations starting from 30 μM: 30, 10 and 3 μM; naphthoquine phosphate was diluted with a 3-fold gradient into 3 concentrations starting from 10 μM: 10, 3 and 1 μM.
A suspension of mouse spleen lymphocytes was inoculated into a 96-well plate at […], and the stimulant TLR4-L (final concentration: 10 μg/ml), TLR7-L (final concentration: 5 μg/ml) or TLR9-L (final concentration: 1 μM) and compounds diluted with the above concentration gradients were added. A corresponding stimulation control and a cell control (without stimulation) were set up. The cells were cultured in a 37° C., 5% CO2 incubator for 48 hours. Eight hours before the end of culture, ^3H-TdR was added, and the culture continued until the end of the experiment. The cells were collected onto glass fiber membranes using a cell collector. 5 ml scintillation fluid was added, and the values of radioactive counts per minute were read on a Beta counter (2450 Microplate Counter, PerkinElmer).

[2] = tested on: mouse whole spleen lymphocytes (ConA-induced T cell activation and proliferation); test: ConA-induced lymphocyte proliferation assay (3H-thymidine); assay type: cell-based; settings: for IC50: ConA 1 μg/ml, 48 hours, 3H-thymidine, read-out: ConA IC50
Protocol: BALB/c mice were sacrificed by cervical dislocation, and spleens were aseptically excised to prepare whole spleen lymphocytes. The cells were adjusted to the required concentration.
A suspension of mouse spleen lymphocytes was inoculated into a 96-well plate at 5×10^5/well, and ConA (final concentration: 1 μg/ml) or LPS (final concentration: 10 μg/ml) and the above 10 concentration gradients of the compound were added. Corresponding cell control wells without ConA and LPS, as well as medicament-free stimulated control wells, were set up. The cells were cultured in a 37° C., 5% CO2 incubator for 48 hours. Eight hours before the end of the culture, ^3H-thymidine was added, and the culture continued until the end of the experiment (i.e., the aforementioned 48 hours). The cells were collected onto glass fiber membranes using a cell collector.
ConA and LPS, as mitogens, stimulated proliferation and differentiation of T and B lymphocytes, respectively. This process is similar to the activation process of lymphocytes in vivo. Therefore, mitogen-induced lymphocyte proliferation is commonly used as an indicator to evaluate functionality of lymphocytes.

IgM = IgM secretion by TLRs-L-stimulated purified mouse B cells (ELISA); assay type: cell-based; settings: B-cell, 120 h, stimulant TLR4-L 10 μg/ml
Protocol: as §1
A suspension of purified mouse B cells was inoculated into a 96-well plate at 4×10^5/well. Hydroxychloroquine sulfate was diluted with a 2-fold gradient into 3 concentrations, starting from 8 μM: 8, 4 and 2 μM. Naphthoquine phosphate was diluted with a 2-fold gradient into 3 concentrations starting from 0.5 μM.: 0.5, 0.25 and 0.125 μM. […] After the end of the culture, the cell culture supernatants were collected, and the levels of IgG and IgM were measured by ELISA.

IgG = IgG secretion by TLRs-L-stimulated mouse whole spleen lymphocytes (ELISA); assay type: cell-based; settings: Lymphocyte, 120 h
Protocol: as §2
Mouse spleen lymphocytes were inoculated into a 96-well plate at 100 μl/well, and the stimulant TLR4-L (final concentration: 10 μg/ml), TLR7-L (final concentration: 5 μg/ml) or TLR9-L (final concentration: 1 μM) and the compounds diluted with the above concentration gradients were added. A corresponding stimulation control and a cell control (without stimulation) were set up. The cells were cultured in a 37° C., 5% CO2 incubator for 120 hours. After the end of the culture, the cell culture supernatants were collected, and the levels of IgG and IgM were measured by ELISA.

SMILES	production of TNF-α (TNF-α)	IC50 (TNF-α) [µM]	IC50 (purified mouse B cells) [µM]	proliferation of purified mouse splenic B cells and production of inflammatory cytokines and antibodies induced by specific TLR signals (purified mouse B cells)	IC50 ([1]; stimulant TLR4-L 10 μg/ml) [µM]	IC50 ([1]; stimulant TLR7-L 5 μg/ml) [µM]	IC50 ([1]; stimulant TLR9-L 1 μM) [µM]	IC50 ([2]; listed as Hydroxychloroquine Sulfate (Zhongxi Sunve)) [µM]	IC50 ([2]; Mus musculus, Lymphocyte) [µM]	IC50 (IgM) [µM]	IC50 (IgG; stimulant TLR4-L 10 μg/ml) [µM]	IC50 (IgG; stimulant TLR7-L 5 μg/ml) [µM]	IC50 (IgG; stimulant TLR9-L 1 μM) [µM]	proliferation and cytokine and antibody secretion mediated by specific TLRs-L ([1]; mouse whole spleen lymphocytes, in words)	effect on ConA-induced T cell activation and proliferation ([2]; in words)
CCN(CCO)CCCC(C)Nc1ccnc2cc(Cl)ccc12 (stereo not shown) [Hydroxychloroquine Sulfate, hydroxychloroquine sulfate]	no significant effect	46.3	9.95	inhibited	6.61	18.9	8.79	17	17.1	> 8	18.2	26.9	5.63		
CC(C)(C)NCc1cc(Nc2ccnc3cc(Cl)ccc23)c2c(c1O)CCCC2.O=P(O)(O)O.O=P(O)(O)O [Naphthoquine Phosphate, Naphthoquine phosphate]	no significant effect	> 10	0.19	inhibited	0.129	1.05	0.218		0.41	0.21			0.325	significantly inhibited	significant inhibitory activity
